Laboratory results reported in patent publication US20220193076A1, “METHODS OF TREATING BREAST CANCER WITH TUCATINIB” (Seagen Inc., priority 2019, published 2022).

Key:
CYP3A4 = CYP3A4 (Homo sapiens, UniProt P08684); experiment: Example 2 Part D: effect of tucatinib on PK of substrate probe midazolam; settings: steady-state tucatinib in combination with tolbutamide/midazolam vs tolbutamide/midazolam alone
Experimental: (§1) A Phase 1, open-label, fixed-sequence, 5-part, drug-drug interaction study of tucatinib was conducted to evaluate the effects of CYP3A4 and CYP2C8 inhibition and induction on the pharmacokinetics of tucatinib and to evaluate the effects of tucatinib on the pharmacokinetics of substrates of CYP3A4, CYP2C8, CYP2C9, and P-glycoprotein in healthy male and female subjects.
(§2) Part B evaluates the effect of rifampin, a strong inducer of CYP3A4 and CYP2C8, on the PK of tucatinib. […] Part E evaluates the effect of tucatinib on the PK of a substrate probe of the transporter P-gp (digoxin). […] For Parts A, B, and C, tucatinib is given as a single oral dose because evaluating plasma exposures after a single dose of tucatinib is expected to provide an appropriate assessment of the impact of the probe drugs on tucatinib PK. In Parts D and E, tucatinib is given as a multiple-dosing regimen in order to examine its effects on probe drugs at steady state, at which maximal inhibition of CYP2C8, CYP2C9, CYP3A4, and P-gp by tucatinib should be achieved.
(§3) Secondary objectives of the study included: (1) assessing the safety and tolerability of tucatinib when administered alone and when co-administered with substrate probes of CYP2C8, CYP2C9, and CYP3A4; and (2) assessing the single-dose PK of tucatinib and assessing the multiple-dose, steady-state PK of tucatinib alone and in the presence of substrate probes of CYP2C8, CYP2C9, and CYP3A4 in healthy subjects.
(§4) They were discharged on Day 14 after completion of the in-patient assessments.
(§5) On Day 1, each subject received a single oral dose of 0.5 mg of repaglinide. […] From Day 4 to Day 13, each subject received oral doses of 300 mg of tucatinib, twice daily (BID). On Day 11, each subject received a single oral dose of repaglinide. […] Tucatinib was provided as 150-mg tablets (2 tablets for the 300-mg dose), repaglinide was provided as 0.5-mg tablets, olbutamide was provided as 500-mg tablets, and midazolam was provided as a syrup (2 mg/mL; 1 mL syrup for the 2-mg dose). Tucatinib, repaglinide, olbutamide and midazolam were administered before meals preceded by an at least 8-hour overnight fast.
(§6) Other noncompartmental PK parameters may be reported. Additionally, blood samples for determination of plasma concentrations of tucatinib and ONT-993 were collected at the time points indicated in FIG. 8. […] A single genotyping blood sample was collected to assess possible effect of CYP polymorphisms or other genetic polymorphisms on the magnitude of drug interactions of tucatinib with probe drugs and substrates.

CYP2C9 = CYP2C9 (Homo sapiens, UniProt P11712); experiment: Example 2 Part D: effect of tucatinib on PK of substrate probe tolbutamide; settings: tolbutamide/midazolam in combination with steady-state tucatinib vs tolbutamide/midazolam alone
CYP2C9, sequence (P11712 whole entry): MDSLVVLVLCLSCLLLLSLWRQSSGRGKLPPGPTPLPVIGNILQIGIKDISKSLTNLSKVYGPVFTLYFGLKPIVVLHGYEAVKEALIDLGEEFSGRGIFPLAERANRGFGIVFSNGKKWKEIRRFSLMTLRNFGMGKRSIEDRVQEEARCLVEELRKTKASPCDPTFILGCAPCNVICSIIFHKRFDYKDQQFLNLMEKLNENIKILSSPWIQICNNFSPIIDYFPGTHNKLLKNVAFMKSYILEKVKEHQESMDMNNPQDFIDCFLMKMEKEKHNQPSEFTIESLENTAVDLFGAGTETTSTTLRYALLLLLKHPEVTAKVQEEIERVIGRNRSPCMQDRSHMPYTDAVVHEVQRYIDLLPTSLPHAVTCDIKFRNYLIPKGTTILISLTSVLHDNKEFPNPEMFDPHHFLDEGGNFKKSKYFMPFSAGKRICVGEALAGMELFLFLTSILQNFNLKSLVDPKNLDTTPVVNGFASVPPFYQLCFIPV
Experimental: as §1, §2, §3, §4
as §5, with “Tucatinib, repaglinide, olbutamide and midazolam were administered before meals preceded by an at least 8-hour overnight fast.” left out

P-gp = P-gp (Homo sapiens, UniProt P08183); experiment: Example 2 Part E: effect of tucatinib on PK of substrate probe digoxin; settings: digoxin in combination with steady-state tucatinib vs digoxin alone
P-gp, sequence (P08183 whole entry): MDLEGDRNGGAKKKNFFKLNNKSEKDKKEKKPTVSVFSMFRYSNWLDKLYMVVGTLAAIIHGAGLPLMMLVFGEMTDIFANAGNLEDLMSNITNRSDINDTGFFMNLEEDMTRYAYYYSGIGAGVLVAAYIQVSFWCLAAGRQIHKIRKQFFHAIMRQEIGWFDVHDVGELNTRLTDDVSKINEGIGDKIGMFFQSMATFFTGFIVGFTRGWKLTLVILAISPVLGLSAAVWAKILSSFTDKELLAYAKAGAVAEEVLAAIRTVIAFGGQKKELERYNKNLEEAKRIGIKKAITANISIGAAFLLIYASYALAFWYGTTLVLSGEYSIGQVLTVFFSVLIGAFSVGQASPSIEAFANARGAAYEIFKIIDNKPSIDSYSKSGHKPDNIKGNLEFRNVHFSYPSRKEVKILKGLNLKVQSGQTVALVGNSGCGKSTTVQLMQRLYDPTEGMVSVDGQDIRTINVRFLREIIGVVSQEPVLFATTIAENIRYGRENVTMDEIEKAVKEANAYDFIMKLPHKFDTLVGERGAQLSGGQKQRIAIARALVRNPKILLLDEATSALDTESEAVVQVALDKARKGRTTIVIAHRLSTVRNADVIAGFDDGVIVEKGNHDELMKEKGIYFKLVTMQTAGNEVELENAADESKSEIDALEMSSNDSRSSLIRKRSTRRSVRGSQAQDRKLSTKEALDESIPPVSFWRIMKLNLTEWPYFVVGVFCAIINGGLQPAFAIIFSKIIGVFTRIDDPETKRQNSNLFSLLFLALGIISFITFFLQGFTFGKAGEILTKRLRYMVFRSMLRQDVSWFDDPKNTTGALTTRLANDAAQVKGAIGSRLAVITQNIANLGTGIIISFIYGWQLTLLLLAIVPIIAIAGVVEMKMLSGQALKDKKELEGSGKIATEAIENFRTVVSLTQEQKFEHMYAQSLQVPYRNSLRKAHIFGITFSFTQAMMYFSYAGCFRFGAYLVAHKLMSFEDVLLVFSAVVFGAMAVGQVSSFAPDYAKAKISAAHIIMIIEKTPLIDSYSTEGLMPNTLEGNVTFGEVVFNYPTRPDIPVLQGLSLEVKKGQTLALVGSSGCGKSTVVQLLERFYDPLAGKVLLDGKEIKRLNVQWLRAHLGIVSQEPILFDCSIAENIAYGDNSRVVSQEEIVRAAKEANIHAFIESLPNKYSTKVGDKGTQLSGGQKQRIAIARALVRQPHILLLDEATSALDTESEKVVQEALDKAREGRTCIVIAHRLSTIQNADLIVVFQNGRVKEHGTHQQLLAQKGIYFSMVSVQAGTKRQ
Experimental: as §1, §2
A single genotyping blood sample was collected to assess possible effect of CYP polymorphisms or other genetic polymorphisms on the magnitude of drug interactions of tucatinib with probe drugs and substrates.

[1] = Example 1: renal function (iohexol aGFR, serum creatinine, urine albumin); type: in vivo, human
MATE1/2K [2] = experiment: clinical; settings: both, human, plasma
MATE1/2K [3] = experiment: Phase 1 drug-drug interaction study: effect of tucatinib on metformin pharmacokinetics (Example 1)
CYP2C8 = molecular target: T1, CYP2C8 (Homo sapiens, UniProt P10632); experiment: Example 2 Part D: effect of tucatinib on PK of substrate probe repaglinide; type: in vivo; design: endogenous in cells; host or cells: healthy human subjects, in vivo; settings: repaglinide in combination with steady-state tucatinib vs repaglinide alone
T1 sequence (P10632 1-490): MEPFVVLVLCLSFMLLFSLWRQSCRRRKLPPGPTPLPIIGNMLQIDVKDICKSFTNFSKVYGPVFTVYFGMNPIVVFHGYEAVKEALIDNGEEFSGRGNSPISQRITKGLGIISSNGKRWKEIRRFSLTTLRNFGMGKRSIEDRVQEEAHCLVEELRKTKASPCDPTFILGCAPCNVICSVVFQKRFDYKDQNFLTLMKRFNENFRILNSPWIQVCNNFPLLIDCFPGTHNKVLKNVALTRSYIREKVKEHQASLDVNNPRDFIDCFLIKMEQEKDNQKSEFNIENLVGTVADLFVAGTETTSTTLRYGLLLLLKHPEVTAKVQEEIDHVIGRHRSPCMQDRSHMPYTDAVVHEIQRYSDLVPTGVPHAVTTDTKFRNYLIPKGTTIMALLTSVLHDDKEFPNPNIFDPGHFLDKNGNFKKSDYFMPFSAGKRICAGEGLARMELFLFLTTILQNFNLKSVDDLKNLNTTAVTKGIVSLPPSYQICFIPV
Experimental: as §1, §2, §3, §4, §5, §6

[4] = coadministration of tucatinib with metformin compared to metformin alone
[5] = Metformin with tucatinib (Test), n = 17

CYP3A4, sequence (P08684 whole entry): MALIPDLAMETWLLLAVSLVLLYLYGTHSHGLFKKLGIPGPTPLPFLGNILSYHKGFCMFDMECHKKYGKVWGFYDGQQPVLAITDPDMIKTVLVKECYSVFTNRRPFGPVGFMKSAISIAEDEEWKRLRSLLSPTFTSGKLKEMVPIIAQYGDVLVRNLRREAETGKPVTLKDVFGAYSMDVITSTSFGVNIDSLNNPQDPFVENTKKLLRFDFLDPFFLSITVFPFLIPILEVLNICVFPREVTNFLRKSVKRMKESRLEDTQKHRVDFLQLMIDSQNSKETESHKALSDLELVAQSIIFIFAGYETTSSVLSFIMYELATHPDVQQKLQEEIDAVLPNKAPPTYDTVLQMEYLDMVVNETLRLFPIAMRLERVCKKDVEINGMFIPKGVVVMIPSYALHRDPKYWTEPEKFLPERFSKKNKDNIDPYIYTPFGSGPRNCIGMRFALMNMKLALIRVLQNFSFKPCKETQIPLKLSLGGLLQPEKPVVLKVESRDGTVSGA

SMILES: OCc1ncc2n1-c1ccc(Cl)cc1C(c1ccccc1F)=NC2 [1-hydroxymidazolam]
- Geometric LS mean ratio (90% CI), AUC0-∞ (CYP3A4): 1.02 (0.903, 1.16)
- Geometric LS mean ratio (90% CI), AUClast (CYP3A4): 0.945 (0.848, 1.05)
- Geometric LS mean ratio (90% CI), Cmax (CYP3A4): 0.593 (0.507, 0.694)
- Geometric mean MRAUC0-∞, decreased by (CYP3A4): approximately 82.8%
- Geometric mean MRCmax, decreased by (CYP3A4): ~80.4%

SMILES: CCCCNC(=O)NS(=O)(=O)c1ccc(CO)cc1 [4-hydroxytolbutamide]
- Geometric LS mean ratio (90% CI), AUC0-∞ (CYP2C9): 0.918 (0.880, 0.958)
- Geometric LS mean ratio (90% CI), AUClast (CYP2C9): 0.900 (0.868, 0.934)
- Geometric LS mean ratio (90% CI), Cmax (CYP2C9): 0.881 (0.831, 0.934)

SMILES: C[C@H]1O[C@@H](O[C@H]2[C@@H](O)C[C@H](O[C@H]3[C@@H](O)C[C@H](O[C@H]4CC[C@@]5(C)[C@H](CC[C@@H]6[C@@H]5C[C@@H](O)[C@]5(C)[C@@H](C7=CC(=O)OC7)CC[C@]65O)C4)O[C@@H]3C)O[C@@H]2C)C[C@H](O)[C@@H]1O [digoxin]
- Geometric LS mean ratio (90% CI), AUC0-∞ (P-gp): 1.46 (1.29, 1.66)
- Geometric LS mean ratio (90% CI), AUClast (P-gp): 1.53 (1.35, 1.74)
- Geometric LS mean ratio (90% CI), Cmax (P-gp): 2.35 (1.90, 2.90)

SMILES: CC(=O)N(CC(O)CO)c1c(I)c(C(=O)NCC(O)CO)c(I)c(C(=O)NCC(O)CO)c1I (stereo not shown) [iohexol, reference compound]
- Mean iohexol PK parameters [1, 4]: similar
- aGFR estimated using the Jødal and Brøchner Mortensen equation (iohexol) ([1]; metformin alone): 94.99 mL/min/1.73 m^2
- aGFR estimated using the Jødal and Brøchner Mortensen equation (iohexol) ([1]; metformin plus tucatinib): 94.56 mL/min/1.73 m^2

SMILES: CN(C)C(=N)N=C(N)N [metformin]
- AUC (MATE1/2K [2]; oral): 11600 ng·h/mL
- AUC (MATE1/2K [2]; oral, 850 mg): 8330 ng·h/mL
- AUC(0-t) (MATE1/2K [2]; oral, 850 mg): 8150 ng·h/mL
- Cmax (MATE1/2K [2]; oral, 850 mg): 1310 ng/mL
- AUC(0-inf) (MATE1/2K [2]; po, 850 mg): 8610 ng·h/mL
- AUC(0-t) (MATE1/2K [2]; po, 850 mg): 8420 ng·h/mL
- Cmax (MATE1/2K [2]; po, 850 mg): 1330 ng/mL
- Vd/F (MATE1/2K [2]; po, 850 mg): 695 L
- Plasma metformin CL/F, arithmetic mean (CV %) (MATE1/2K [3]; Metformin + tucatinib 300 mg bid at steady state, Day 8, N = 17): 77.4 L/h
- Plasma metformin CL/F, arithmetic mean (CV %) (MATE1/2K [3]; Metformin + tucatinib 300 mg bid at steady state, Day 8, N = 17, listed as Metformin): 77.4 (34.9) L/h
- Plasma metformin CL/F, arithmetic mean (CV %) (MATE1/2K [3]; Metformin alone, 850 mg oral, Day 1, N = 17): 105.4 L/h
- Plasma metformin CL/F, arithmetic mean (CV %) (MATE1/2K [3]; Metformin alone, 850 mg oral, Day 1, N = 17, listed as Metformin): 105.4 (26.7) L/h
- AUC0-last, geometric least-squares (LS) mean (MATE1/2K [3]; [5]): 11054 ng·h/mL
- Cmax, geometric least-squares (LS) mean (MATE1/2K [3]; [5]): 1418 ng/mL
- Increase of arithmetic mean metformin AUC0-inf (MATE1/2K [3]; [4]): 1.409 fold
- Increase of arithmetic mean metformin AUC0-last (MATE1/2K [3]; [4]): 1.376 fold
- Increase of arithmetic mean metformin Cmax (MATE1/2K [3]; [4]): 1.102 fold

SMILES: Cc1ncc2n1-c1ccc(Cl)cc1C(c1ccccc1F)=NC2 [midazolam]
- Geometric LS mean ratio (90% CI), AUC0-∞ (CYP3A4): 5.74 (5.05, 6.53)
- Geometric LS mean ratio (90% CI), AUClast (CYP3A4): 5.30 (4.65, 6.04)
- Geometric LS mean ratio (90% CI), Cmax (CYP3A4): 3.01 (2.63, 3.45)

SMILES: CCOc1cc(CC(=O)N[C@@H](CC(C)C)c2ccccc2N2CCCCC2)ccc1C(=O)O [repaglinide]
- Geometric LS mean ratio (90% CI), AUC0-∞ (CYP2C8): 1.69 (1.51, 1.90)
- Geometric LS mean ratio (90% CI), AUClast (CYP2C8): 1.72 (1.55, 1.91)
- Geometric LS mean ratio (90% CI), Cmax (CYP2C8): 1.69 (1.37, 2.10)
